Our source for the Ki values is BindingDB's records for doi:10.1021/jm991008q (1999).

In general, Ki refers to a dissociation constant, usually derived from enzyme kinetics or from competition with a known ligand.

The target of assay [1] is Ornithine carbamoyltransferase (Streptococcus/Enterococcus faecalis). As to the kind of experiment: Binding affinity against ornithine transcarbamoylase (OTC) produced by Streptococcus faecalis The buffer taken for this study is 50 mM maleate, 0.5 mM EDTA at pH 6.0.
For assay [2] the target is unchanged. As to the kind of experiment: Binding affinity against ornithine transcarbamoylase (OTC) produced by Streptococcus faecalis The buffer taken for this study is 50 mM Tris.HCl, 0.5 mM EDTA at pH 7.0.
Assay [3] has the same target. As to the kind of experiment: Binding affinity against ornithine transcarbamoylase (OTC) produced by Streptococcus faecalis The buffer taken for this study is 50 mM Tris.HCl, 0.5 mM EDTA at pH 8.0.

As for `N[C@@H](CCNCP(=O)(O)CP(=O)(O)O)C(=O)O` [(2S)-2-ammonio-4-[({[(hydroxyphosphinato)methyl]phosphinato}methyl)ammonio]butanoate], the Ki is more than 20 mM in assay [1], 2.3 mM in assay [2] and 3.2 mM in assay [3].
Regarding `CC(C)(C)OC(=O)N[C@@H](CCCNCP(=O)(O)CP(=O)(O)O)C(=O)O` [(2S)-2-[(tert-butoxycarbonyl)amino]-5-[({[(hydroxyphosphinato)methyl]phosphinato}methyl)ammonio]pentanoate], the inhibition constant Ki in assay [1] was more than 20 mM; in assay [2], 1 mM; in assay [3] it was 2 mM.
For `N[C@@H](CCCNCP(=O)(O)CP(=O)(O)O)C(=O)O` [2-Amino-5-[(hydroxy-phosphonomethyl-phosphinoylmethyl)-amino]-pentanoic acid] the same measures were 0.66 mM, 0.75 mM and 1.9 mM.
